Test results from patent US7999119B2, “Compounds having CRTH2 antagonist activity” (Oxagen Limited, priority 2006, dated 2011).
Where “and” joins values, the source holds several entries; their conditions need not be identical. Equal entries are not always repeated. Where two headings read alike, the source gives them in different places.

Legend:
[1] = test system: PGD2 induced eosinophil shape change; assay: Human whole blood eosinophil shape change assay; type: cell-based; details: Homo sapiens, Eosinophil
Protocol: Human Whole Blood Eosinophil Shape Change Assay
Compounds 1 to 3 were assayed for their effect on PGD2 induced eosinophil shape change and were compared with Comparator Compounds A to G.
Shape Change Assay in Whole Blood
Compounds (1 μl, 200× final concentration) were added directly to 200 μl whole blood, mixed well and incubated for 15 min, 37° C., 5% CO2. After this time, cell shape was fixed by addition of 300 μl Cytofix™ buffer (BD Biosciences), 15 min on ice. 10 ml RBC lysis buffer was added to the fixed cells, incubated 5 min, at room temperature and centrifuged, 300×g for 5 min. Supernatant (containing lysed red cells) was removed and the lysis step was repeated. Leukocytes were resuspended in 250 μl RPMI/10% FCS and shape change analysed by FACS. Eosinophils were gated out based on their autofluorescence and 2000 eosinophil events were counted per sample. Data were analysed in triplicate.

[2] = Pharmacokinetics following oral administration in the rat; type: in vivo; details: rat, 3 mg/kg, rat
Protocol: Investigation of Pharmacokinetics of Compounds of General Formula (I) Following Oral Administration in the Rat
Rats were weighed on the day of dosing.
The test material was prepared as a 0.3 mg/mL suspension in 1% carboxy-methyl-cellulose (CMC).
Three groups of 3 rats were dosed as follows:
Doses were administered as a single oral dose using a gavage tube at a constant dose volume of 10 mL/kg.
At each sampling time point blood samples (approximately 0.3 mL) was taken from a catheter inserted into a lateral tail vein prior to the start of the experiment. The final blood sample (approximately 2 mL) from each animal was taken by cardiac puncture under isoflurane anaesthesia following which the animal was killed by exsanguination. Blood samples were taken into individual heparinised containers. Blood samples were collected at the following times post-dose:
Following collection, the blood samples were centrifuged (approximately 10,000×g, 2 min at 4° C.) and the plasma stored as one aliquot at approximately −20° C. pending analysis of drug concentrations by LC-MS/MS.
The plasma samples were analysed for test material concentrations at BioDynamics using an LC-MS/MS method developed at BioDynamics.

[3] = test system: DK-PGD2-induced blood eosinophilia; assay: Inhibition of DK-PGD2-induced blood eosinophilia in rats; type: in vivo, rat; details: female rats, oral dosing 30 min before 10 μg DK-PGD2 intracardiac; ED50 from dose-response curve; the values are: ED50
Protocol: Evaluation of Compounds of General Formula (I) as Inhibitors of 13,14-dihydro-15-keto prostaglandin D2 (DK-PGD2)-Induced Blood Eosinophilia in Rats
The test compound was dissolved in DMSO and diluted with water to give a final dosing volume of 2 ml/kg.
Female rats (175-250 g; UH colony) were dosed orally with test compound (or vehicle).
30 min after dosing all animals were anaesthetised with isoflurane.
Following induction of anaesthesia, animals receive an intracardiac injection of 10 μg DK-PGD2 in 0.3 ml heparinised (10 U/ml) saline. Control animals received an injection of 0.3 ml heparinised saline.
60 min after the intracardiac injection, animals were injected with an overdose of pentobarbitone sodium and a blood sample was taken (into heparin) by cardiac puncture while the rat was anaesthetised but not dead.
An aliquot of blood (100 μl) was added to Turk's solution and the total leukocyte count determined with a haemocytometer.
A further aliquot of blood (500 μl) was mixed with an equal volume of 4% Dextran (mw 500,000) and the erythrocytes allowed to settle. A cytospin preparation was made from the resulting leukocyte rich fraction.
Cytospin preparations were fixed with methanol (5 min) and stained with May-Grunwald (5 min) and Giemsa (15 min) stains. Finally cytospins were washed in phosphate buffer (pH6.8) and air dried.
Differential leukocyte counts were obtained from the cytospin preparations.
Blood eosinophil numbers were determined from the total leukocyte count and the percentage eosinophils (differential count).
Because it was impractical to generate sufficient data in any given experiment, data were obtained over a number of replicate experiments. Data from these replicate experiments were pooled, to provide at least 5 animals in each group and a dose-response curve fitted following a significance test (Mann Whitney) to determine whether or not DK-PGD2 caused a significant increase in blood eosinophils (GraphPad, Prism). A difference between groups was taken to be significant when P<0.05. ED50 values were calculated from the dose-response curve.

[4] = 3 mg/kg p.o, individual male animals

## Cc1c(Cc2ccccc2S(=O)(=O)c2ccc(Cl)cc2)c2cc(F)ccc2n1CC(=O)O [Compound 2, 2-(3-(2-(4-chlorophenylsulfonyl)benzyl)-5-fluoro-2-methyl-1H-indol-1-yl)acetic acid]
[1]; 10 nm PGD2-induced eosinophil shape change, human whole blood, read-out: Whole Blood IC50
  IC50: 2 nM
[1]; Table 12 summary of whole blood eosinophil shape change IC50, read-out: IC50 (μmol)
  IC50: 2 nM
[1]; whole blood eosinophil shape change IC50 converted to ng/mL, read-out: IC50
  IC50: 0.9 ng/mL
[1]; read-out: IC50 in the whole blood eosinophil shape change assay
  IC50: 2 nM
[2]; male, plasma, po, 3 mg/kg oral, 0.25 h, individual male animals, read-out: Concentration in Blood
  concentration at 0.25 h: 1570 ng/mL
[2]; male, plasma, po, 3 mg/kg oral, 0.25 h, mean, read-out: Concentration in Blood, Mean
  concentration at 0.25 h: 1490 ng/mL
[2]; male, plasma, po, 3 mg/kg oral, 0.5 h, individual male animals, read-out: Concentration in Blood
  concentration at 0.5 h: 2610 ng/mL
[2]; male, plasma, po, 3 mg/kg oral, 0.5 h, mean, read-out: Concentration in Blood, Mean
  concentration at 0.5 h: 2220 ng/mL
[2]; male, plasma, po, 3 mg/kg oral, 1 h, individual male animals, read-out: Concentration in Blood
  concentration at 1 h: 2960 ng/mL
[2]; male, plasma, po, 3 mg/kg oral, 1 h, mean, read-out: Concentration in Blood, Mean
  concentration at 1 h: 2900 ng/mL
[2]; male, plasma, po, 3 mg/kg oral, 2 h, individual male animals, read-out: Concentration in Blood
  concentration at 2 h: 2240 ng/mL
[2]; male, plasma, po, 3 mg/kg oral, 2 h, mean, read-out: Concentration in Blood, Mean
  concentration at 2 h: 2500 ng/mL
[2]; male, plasma, po, 3 mg/kg oral, 4 h, individual male animals, read-out: Concentration in Blood
  concentration at 4 h: 1130 ng/mL
[2]; male, plasma, po, 3 mg/kg oral, 4 h, mean, read-out: Concentration in Blood, Mean
  concentration at 4 h: 1370 ng/mL
[2]; male, plasma, po, 3 mg/kg oral, 6 h, mean, read-out: Concentration in Blood, Mean
  concentration at 6 h: 640 ng/mL
[2]; male, plasma, po, 3 mg/kg oral, 8 h, mean, read-out: Concentration in Blood, Mean
  concentration at 8 h: 450 ng/mL
[2]; male, plasma, po, 3 mg/kg oral, 12 h, mean, read-out: Concentration in Blood, Mean
  concentration at 12 h: 100 ng/mL
[2]; male, plasma, po, 3 mg/kg p.o, individual male animals, read-out: AUCinf
  AUC(0-inf): 13200 ng·h/mL
[2]; male, plasma, po, 3 mg/kg p.o, individual male animals, read-out: Cmax
  Cmax: 2960 ng/mL
[2]; male, plasma, po, 3 mg/kg p.o, individual male animals, read-out: Tmax
  Tmax: 1 h
[2]; male, plasma, po, 3 mg/kg p.o, mean, summary without unit (Table 12), read-out: AUCinf (mean)
  AUC(0-inf): 11700 ng·h/mL
[2]; male, plasma, po, 3 mg/kg p.o, mean, summary without unit (Table 12), read-out: Cmax (mean)
  Cmax: 2950 ng/mL
[2]; male, plasma, po, 3 mg/kg p.o, mean, read-out: AUCinf, Mean
  AUC(0-inf): 11700 ng·h/mL
[2]; male, plasma, po, 3 mg/kg p.o, mean, read-out: Cmax, Mean
  Cmax: 2950 ng/mL
[2]; male, plasma, po, 3 mg/kg p.o, mean, read-out: Tmax, Mean
  Tmax: 1.3 h
[2]; male, plasma, po, 3 mg/kg p.o, mean, read-out: T½, Mean (converted)
  half-life: 3.7 h
[2]; 3 mg/kg oral, 0.25 h, individual male animals
  Concentration in Blood: 1297.7 ng/mL and 1608.1 ng/mL
[2]; 3 mg/kg oral, 0.5 h, individual male animals
  Concentration in Blood: 1770.2 ng/mL and 2276.6 ng/mL
[2]; 3 mg/kg oral, 1 h, individual male animals
  Concentration in Blood: 2367.1 ng/mL and 3366.1 ng/mL
[2]; 3 mg/kg oral, 2 h, individual male animals
  Concentration in Blood: 2536.9 ng/mL and 2717.6 ng/mL
[2]; 3 mg/kg oral, 4 h, individual male animals
  Concentration in Blood: 1319.1 ng/mL and 1666.5 ng/mL
[2]; 3 mg/kg oral, 6 h, individual male animals
  Concentration in Blood: 519.6 ng/mL and 368.3 ng/mL and 1032.6 ng/mL
[2]; 3 mg/kg oral, 8 h, individual male animals
  Concentration in Blood: 423.7 ng/mL and 186.7 ng/mL and 740.4 ng/mL
[2]; 3 mg/kg oral, 12 h, individual male animals
  Concentration in Blood: 144.7 ng/mL and 28.2 ng/mL and 128.1 ng/mL
[2]; 3 mg/kg oral, 24 h, individual male animals
  Concentration in Blood: 60.5 ng/mL and 0.0 ng/mL (2×)
[2]; [4]
  AUCinf: 10179 ng·h/mL and 15677 ng·h/mL
  Cmax: 2537.0 ng/mL and 3366.0 ng/mL
  Tmax: 2.0 h
  T½: 6 hours and 2 hours (2×)
[3]
  Potency in inhibition of DK-PGD2-induced blood eosinophilia: 0.01 mg/kg
